# In ChEMBL document CHEMBL4619760, “Anti-inflammatory Efficacy of Combined Natural Alkaloid Berberine and S1PR Modulator Fingolimod at Low Doses in Ulcerative Colitis Preclinical Models” (J Nat Prod, 2020):
# Active and inactive are the calls of the source. The calls are words filed in the database; no cut-off is given here.
# Experiments:
# [1] = tested on: Mus musculus; assay: Anti-colitis activity against DSS-induced C57BL/6 mouse model of subchronic relapsing colitis assessed as effect on body weight at 40 mg/kg, po administered once daily for 14 days starting from day 5 post DSS challenge and measured after day 12 to day 18; type: functional, organism-based
# [2] = tested on: Mus musculus; assay: Anti-colitis activity against DSS-induced C57BL/6 mouse model of subchronic relapsing colitis assessed as reduction in stool consistency scores at 40 mg/kg, po administered once daily for 14 days starting from day 5 post DSS challenge and measured on day 19; type: functional, organism-based
# [3] = tested on: Mus musculus; assay: Anti-colitis activity against DSS-induced C57BL/6 mouse model of subchronic relapsing colitis assessed as reduction in stool bleeding scores at 40 mg/kg, po administered once daily for 14 days starting from day 5 post DSS challenge and measured on day 19; type: functional, organism-based
# [4] = tested on: Mus musculus; assay: Anti-colitis activity against DSS-induced C57BL/6 mouse model of subchronic relapsing colitis assessed as reduction in disease activity index at 40 mg/kg, po administered once daily for 14 days starting from day 5 post DSS challenge and measured on day 19; type: functional, organism-based
# [5] = tested on: Mus musculus; assay: Anti-colitis activity against DSS-induced C57BL/6 mouse model of subchronic relapsing colitis assessed as reduction in DSS-induced colon shortening at 40 mg/kg, po administered once daily for 14 days starting from day 5 post DSS-challenge; type: functional, organism-based
# [6] = tested on: Mus musculus; assay: Anti-colitis activity against DSS-induced C57BL/6 mouse model of subchronic relapsing colitis assessed as reduction in colon swelling at 40 mg/kg, po administered once daily for 14 days starting from day 5 post DSS-challenge; type: functional, organism-based
# [7] = tested on: Mus musculus; assay: Anti-colitis activity against DSS-induced C57BL/6 mouse model of subchronic relapsing colitis assessed as reduction in spleen swelling at 40 mg/kg, po administered once daily for 14 days starting from day 5 post DSS-challenge; type: functional, organism-based
# [8] = tested on: Mus musculus; assay: Anti-colitis activity against DSS-induced C57BL/6 mouse model of chronic relapsing colitis assessed as reduction in stool consistency score at 40 mg/kg, po administered once daily for 30 days starting from day 13 post DSS-challenge measured on day 24; type: functional, organism-based
# [9] = tested on: Mus musculus; assay: Anti-colitis activity against DSS-induced C57BL/6 mouse model of chronic relapsing colitis assessed as reduction in stool bleeding at 40 mg/kg, po administered once daily for 30 days starting from day 13 post DSS-challenge measured on day 38; type: functional, organism-based
# [10] = tested on: Mus musculus; assay: Anti-colitis activity against DSS-induced C57BL/6 mouse model of chronic relapsing colitis assessed as reduction in disease activity index at 40 mg/kg, po administered once daily for 30 days starting from day 13 post DSS-challenge and measured on day 24; type: functional, organism-based
# [11] = tested on: Mus musculus; assay: Anti-colitis activity against DSS-induced C57BL/6 mouse model of chronic relapsing colitis assessed as reduction in stool consistency score at 40 mg/kg, po administered once daily for 30 days starting from day 13 post DSS-challenge measured on day 43; type: functional, organism-based
# [12] = tested on: Mus musculus; assay: Anti-colitis activity against DSS-induced C57BL/6 mouse model of chronic relapsing colitis assessed as reduction in stool bleeding at 40 mg/kg, po administered once daily for 30 days starting from day 13 post DSS-challenge measured on day 43; type: functional, organism-based
# [13] = tested on: Mus musculus; assay: Anti-colitis activity against DSS-induced C57BL/6 mouse model of chronic relapsing colitis assessed as reduction in disease activity index at 40 mg/kg, po administered once daily for 30 days starting from day 13 post DSS-challenge and measured on day 43; type: functional, organism-based
# [14] = tested on: Mus musculus; assay: Anti-colitis activity against DSS-induced C57BL/6 mouse model of chronic relapsing colitis assessed as reversal of DSS-induced colon shortening at 40 mg/kg, po administered once daily for 30 days starting from day 13 post DSS-challenge; type: functional, organism-based
# [15] = tested on: Mus musculus; assay: Anti-colitis activity against DSS-induced C57BL/6 mouse model of subchronic relapsing colitis assessed as reduction in DSS-induced colon swelling at 40 mg/kg, po administered once daily for 30 days starting from day 13 post DSS-challenge; type: functional, organism-based
# [16] = tested on: Mus musculus; assay: (§1) Anti-colitis activity against DSS-induced C57BL/6 mouse model of chronic relapsing colitis assessed as reduction in DSS-induced multiple erosive lesions in colon at 40 mg/kg, po administered once daily for 30 days starting from day 13 post DSS-challenge by hematoxylin and eosin staining based light microscopic analysis; type: functional, organism-based
# [17] = tested on: Mus musculus; assay: as §1, with “loss of” for “multiple erosive lesions in”, “colon crypt and columnar epithelium” for “colon”; type: functional, organism-based
# [18] = tested on: Mus musculus; assay: as §1, with “inflammatory cell infiltration” for “multiple erosive lesions in colon”; type: functional, organism-based
# [19] = Toxicity in DSS-induced C57BL/6 mouse model of chronic relapsing colitis assessed as induction of abnormalities in heart at 40 mg/kg, po administered once daily for 30 days starting from day 13 post DSS-challenge by hematoxylin and eosin staining based light microscopic analysis; type: organism-based; conditions: in vivo, 720 h
# [20] = Toxicity in DSS-induced C57BL/6 mouse model of chronic relapsing colitis assessed as induction of abnormalities in liver at 40 mg/kg, po administered once daily for 30 days starting from day 13 post DSS-challenge by hematoxylin and eosin staining based light microscopic analysis; type: organism-based; conditions: in vivo, 720 h
# [21] = Toxicity in DSS-induced C57BL/6 mouse model of chronic relapsing colitis assessed as induction of abnormalities in kidney at 40 mg/kg, po administered once daily for 30 days starting from day 13 post DSS-challenge by hematoxylin and eosin staining based light microscopic analysis; type: organism-based; conditions: in vivo, 720 h
# [22] = Toxicity in DSS-induced C57BL/6 mouse model of chronic relapsing colitis assessed as induction of abnormalities in brain at 40 mg/kg, po administered once daily for 30 days starting from day 13 post DSS-challenge by hematoxylin and eosin staining based light microscopic analysis; type: organism-based; conditions: in vivo, 720 h
# [23] = Toxicity in DSS-induced C57BL/6 mouse model of chronic relapsing colitis assessed as induction of abnormalities in lung at 40 mg/kg, po administered once daily for 30 days starting from day 13 post DSS-challenge by hematoxylin and eosin staining based light microscopic analysis; type: organism-based; conditions: in vivo, 720 h
# [24] = tested on: Mus musculus; assay: Antiinflammatory activity against DSS-induced C57BL/6 mouse model of subchronic relapsing colitis assessed as reduction in IL17 mRNA level at 40 mg/kg, po administered once daily for 14 days starting from day 5 post DSS-challenge by RT-qPCR analysis; type: functional, organism-based
# [25] = tested on: Mus musculus; assay: Antiinflammatory activity against DSS-induced C57BL/6 mouse model of subchronic relapsing colitis assessed as reduction in TNFalpha mRNA level at 40 mg/kg, po administered once daily for 14 days starting from day 5 post DSS-challenge by RT-qPCR analysis; type: functional, organism-based
# [26] = tested on: Mus musculus; assay: Antiinflammatory activity against DSS-induced C57BL/6 mouse model of subchronic relapsing colitis assessed as reduction in IL6 mRNA level at 40 mg/kg, po administered once daily for 14 days starting from day 5 post DSS-challenge by RT-qPCR analysis; type: functional, organism-based
# [27] = tested on: Mus musculus; assay: Antiinflammatory activity against DSS-induced C57BL/6 mouse model of subchronic relapsing colitis assessed as reduction in S1PR1 mRNA level at 40 mg/kg, po administered once daily for 14 days starting from day 5 post DSS-challenge by RT-qPCR analysis; type: functional, organism-based
# [28] = tested on: Mus musculus; assay: Anti-colitis activity against DSS-induced C57BL/6 mouse model of subchronic relapsing colitis assessed as reduction in phosphorylated STAT3 level at 40 mg/kg, po administered once daily for 14 days starting from day 5 post DSS-challenge by Western blot analysis; type: functional, organism-based
# [29] = tested on: Mus musculus; assay: Effect on total STAT3 expression in DSS-induced C57BL/6 mouse model of subchronic relapsing colitis at 40 mg/kg, po administered once daily for 14 days starting from day 5 post DSS-challenge by Western blot analysis; type: ADME, organism-based; conditions: in vivo, 336 h
# [30] = tested on: Mus musculus; assay: Effect on total S1PR1 expression in DSS-induced C57BL/6 mouse model of subchronic relapsing colitis at 40 mg/kg, po administered once daily for 14 days starting from day 5 post DSS-challenge by Western blot analysis; type: ADME, organism-based; conditions: in vivo, 336 h
# [31] = tested on: THP-1; assay: Antiinflammatory activity in human THP1 cells assessed as reduction in LPS-induced IL6 mRNA level at 1 uM incubated for 1 hr followed by LPS challenge and measured after 4 to 6 hrs by q-PCR method; type: functional, cell-based
# [32] = tested on: THP-1; assay: Antiinflammatory activity in human THP1 cells assessed as reduction in LPS-induced TNFalpha mRNA level at 1 uM incubated for 1 hr followed by LPS challenge and measured after 4 to 6 hrs by q-PCR method; type: functional, cell-based
# [33] = target: Signal transducer and activator of transcription 3 (Homo sapiens) (UniProt P40763); assay: Inhibition of STAT3 activation in human THP1 cells assessed as reduction in LPS-induced phosphorylated STAT3 expression at 1 uM incubated for 1 hr followed by LPS challenge and measured after 4 to 6 hrs by Western blot analysis; type: cell-based; conditions: THP-1
# Sequence of Signal transducer and activator of transcription 3 (Homo sapiens) (P40763 whole entry): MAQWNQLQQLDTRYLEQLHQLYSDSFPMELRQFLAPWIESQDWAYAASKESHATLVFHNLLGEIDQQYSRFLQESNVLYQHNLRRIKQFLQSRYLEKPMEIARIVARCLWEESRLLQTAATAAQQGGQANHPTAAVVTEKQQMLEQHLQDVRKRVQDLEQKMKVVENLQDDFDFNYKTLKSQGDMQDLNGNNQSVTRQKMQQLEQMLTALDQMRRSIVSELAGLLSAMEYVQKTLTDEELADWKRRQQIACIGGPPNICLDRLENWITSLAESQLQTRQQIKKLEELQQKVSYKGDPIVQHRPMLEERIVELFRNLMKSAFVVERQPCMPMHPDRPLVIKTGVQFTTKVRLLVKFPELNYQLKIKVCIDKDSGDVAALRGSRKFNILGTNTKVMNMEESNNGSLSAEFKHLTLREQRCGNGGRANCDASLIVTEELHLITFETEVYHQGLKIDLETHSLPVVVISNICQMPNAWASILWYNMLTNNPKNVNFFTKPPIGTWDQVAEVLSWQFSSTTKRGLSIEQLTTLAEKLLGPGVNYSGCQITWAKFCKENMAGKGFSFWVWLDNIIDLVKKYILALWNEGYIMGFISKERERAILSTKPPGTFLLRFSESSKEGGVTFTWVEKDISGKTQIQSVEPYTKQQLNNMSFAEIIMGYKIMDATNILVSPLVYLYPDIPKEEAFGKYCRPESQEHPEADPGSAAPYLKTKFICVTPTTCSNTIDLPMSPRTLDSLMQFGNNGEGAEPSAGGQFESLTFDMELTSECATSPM
# [34] = target: Signal transducer and activator of transcription 3 (Homo sapiens) (UniProt P40763); assay: Inhibition of STAT3 activation in human THP1 cells assessed as reduction in LPS-induced phosphorylated STAT3 expression at 0.5 uM cotreated with 0.5 uM berberine incubated for 1 hr followed by LPS challenge and measured after 4 to 6 hrs by Western blot analysis; type: cell-based; conditions: THP-1
smiles,measurement,setting,value
COc1ccc2cc3[n+](cc2c1OC)CCc1cc2c(cc1-3)OCO2.[Cl-] [BERBERINE CHLORIDE],Activity,[1],inactive
same,Activity,[2],Active
same,Activity,[3],Active
same,Activity,[4],Active
same,Activity,[5],Active
same,Activity,[6],inactive
same,Activity,[7],inactive
same,Activity,[8],Active
same,Activity,[9],Active
same,Activity,[10],Active
same,Activity,[11],Active
same,Activity,[12],Active
same,Activity,[13],Active
same,Activity,[14],Active
same,Activity,[15],inactive
same,Activity,[16],Active
same,Activity,[17],Active
same,Activity,[18],Active
same,Activity,[19],Non-Toxic
same,Activity,[20],Non-Toxic
same,Activity,[21],Non-Toxic
same,Activity,[22],Non-Toxic
same,Activity,[23],Non-Toxic
same,Activity,[24],Active
same,Activity,[25],Active
same,Activity,[26],Active
same,Activity,[27],inactive
same,Activity,[28],Active
same,Activity,[29],Non-Toxic
same,Activity,[30],Non-Toxic
same,Activity,[31],Active
same,Activity,[32],Active
same,inhibition,[33],Active
same,inhibition,[34],Active
